Measurements reported in US10398661B2, “Methods for classifying a cancer as susceptible to TMEPAI-directed therapies and treating such cancers” (THE BOARD OF REGENTS OF THE UNIVERSITY OF TEXAS SYSTEM, priority 2013, dated 2019).

Key:
TMEPAI [1] = assay: TMEPAI mRNA (QPCR) and protein expression in MDA-MB-231 cells with TGF-β; format: cell-based, human
Source text: (§1) FIGS. 1A-B: Relative expression of TMEPAI mRNA and protein in normal and cancer cells. FIG. 1A. Effect of TGF-β on TMEPAI mRNA expression by QPCR in normal human mammary epithelial (HMEC) and MDA-MB-231 breast cancer cells, which is inhibited by TGF-β receptor I kinase inhibitor SB431542 (SB). FIG. 1B. Relative expression of TMEPAI protein in HMEC and MDA-MB-231 cells without or with TGF-β stimulation.
(§2) TMEPAI Expression in Normal Mammary Epithelial Cells Vs Breast Cancer Cells. […] The inventors tested the expression of TMEPAI in various breast cancer lines by immunoblotting. […] Moreover, TMEPAI is also expressed by aggressive HER2-positive breast cancer cells that either coexpress estrogen receptor (BT-474) or not (SK-BR-3) (FIG. 2).

TMEPAI [2] = assay: TMEPAI RNA and protein expression in normal human mammary epithelial cells (HMEC) with TGF-β; format: cell-based; settings: in response to TGF-β
Source text: as §1, §2

[3] = Body weights of xenograft-bearing nude mice treated with CLST-NP or CLST (toxicity); format: in vivo; settings: doses administered: 0.2 mg/kg CLST-NP, 2 mg/Kg CLST
Description: (FIG. 12A) Representative pictures of tumors excised from nude mice that harbored xenografts of human breast cancer cells (MDA-MB-231). (Veh-NP) 2 mg/kg drug-free liposomes, 0.2 mg/kg celastrol containing liposomes (CLST-NP) or 2 mg/Kg celastrol alone (CLST) were administered by intraperitoneal injection every alternate day for first week and every 2 day interval for following week for a total of two weeks period. (FIG. 12B) Tumor weights were shown *p<0.01 versus Vehicle control group. (FIG. 12C) Tumor volumes measured before sacrificing the animals. * p<0.01 versus Vehicle control group. (FIG. 12D) Similarities in body weights of animals treated with vehicle or drugs indicate non-toxicity of CLST-NP and CLST at the doses administered.
Similarities in body weights of animals treated with vehicle or drugs indicate non-toxicity of CLST-NP and CLST at the doses administered.

MDA-MB-231 tumors = assay: Subcutaneous MDA-MB-231 tumors in athymic mice treated with celastrol; format: in vivo; settings: 2 mg/kg, 3 times a week for 4 weeks
Description: (§3) FIG. 11A. athymic mice bearing subcutaneous MDA-MB-231 tumors that were treated for 3 times a week for 4 consecutive weeks with 2 mg/kg celastrol or vehicle alone. FIG. 11B. Tumor weights following celastrol treatment, P<0.001. […] FIG. 11C. […] Toxicity of celastrol administered was monitored by measuring total body weight.
(§4) Pharmacological Inhibition of TMEPAI Expression Reduces Tumor Growth In Vivo. […] Compared to vehicle-treatment, celastrol treatment led to a ˜6-fold reduction in tumor burden (FIG. 11B). […] Thus, these preclinical studies confirm that TMEPAI expressing breast cancers thrive by suppressing tumor suppressive TGF-β signaling and are therefore susceptible to pharmacological inhibition of TMEPAI expression by celastrol.

[4] = tested on: normal mammary epithelial cells MCF-10A; assay: Growth of normal mammary epithelial MCF-10A cells with celastrol; format: cell-based; settings: 1 μM
Source text: FIGS. 10A-D: Celastrol is novel inhibitor of TMEPAI expression and cancer cell growth by enhancing growth suppressive TGF-β signaling. FIG. 10A. […] FIG. 10B. Celastrol had no effect on the growth of normal mammary epithelial cells MCF-10A. FIG. 10C. Celastrol inhibited non-Smad signaling (left panel) and enhanced Smad signaling (right panel) by inhibiting TMEPAI expression. FIG. 10D. Celastrol enhanced Smad signaling as measured by 12XCAGA-Luciferase reporter assay.
Terpinoid Derivative Celastrol Blocked TMEPAI Expression and Reversed TMEPAI Mediated Effects. The inventors identified tripterine (celastrol), a triterpinoid, having the ability to block TGF-β induced TMEPAI expression after screening several terpinoid derivatives with reactive α,β-unsaturated ketones in their structure. […] Only a mild decrease in the proliferation of normal MCF-10A cells was observed even at a 10-fold higher dose of celastrol (not shown). […] Equally, celastrol inhibited non-Smad signaling (FIG. 10C, left panel). The enhancement of Smad signaling is also confirmed by increased 12XCAGA-luciferase reporter activity (FIG. 10D).

[5] = cited from earlier work
[6] = Total body weight of tumor-bearing mice treated with celastrol (toxicity); format: in vivo; settings: 2 mg/kg
Description: as §3, §4

[7] = MDA-MB-231 cells, within 6 h of treatment

TGF-β
induction of TMEPAI mRNA (TMEPAI [1]; [7]): > 40 fold
induction of TMEPAI proteins (TMEPAI [1]; [7]): ~9 fold
induction of TMEPAI RNA and proteins (TMEPAI [2]): poorly induced

NC(=O)c1ccc(-c2nc(-c3ccc4c(c3)OCO4)c(-c3ccccn3)[nH]2)cc1 [SB431542]
effect of TGF-β on TMEPAI mRNA expression by QPCR in presence of inhibitor (TMEPAI [1]; HMEC and MDA-MB-231 cells): inhibited

CC1=C(O)C(=O)C=C2C1=CC=C1[C@@]2(C)CC[C@@]2(C)[C@@H]3C[C@](C)(C(=O)O)CC[C@]3(C)CC[C@]12C [celastrol]
toxicity judged from body weights similar to vehicle [3]: non-toxicity
reduction in tumor burden compared to vehicle-treatment (tumor weights) (MDA-MB-231 tumors): ~6 fold
luminescence signal in the tumors (MDA-MB-231 tumors; MDA-MB-231 cells expressing GFP-luciferase): 500-2500 RLU
growth of normal MCF-10A cells [4]: no effect
aqueous solubility [5]: low
total body weights of mice versus vehicle [6]: remained the same
toxic effects at the dose given to mice [6]: no toxic effects
